Source: PMC5971061, “Differential Effects of Linkers on the Activity of Amphiphilic Tobramycin Antifungals” (Molecules : A Journal of Synthetic Chemistry and Natural …, 2018)
In brackets after ≈: the same amount, converted by molar mass.

Columns and labels:
[1] = tested on: Cryptococcus neoformans clinical isolate CN1; assay: MIC, broth microdilution (CLSI M27-A3), CN1; format: cell-based; details: MIC-0, CN1, 35 °C 48 h
Protocol: (§1) The final concentrations of compounds 3, 4, 7a, 7b, 9, and 16, as well as that of TOB tested in this study ranged from 0.24–62.5 μg/mL. CAS was used as a positive control and the final concentrations tested for CAS ranged from 0.03–31.3 μg/mL. Briefly, overnight yeast cultures were grown in yeast peptone dextrose (YPD) broth and the cell density was adjusted to an OD600 of 0.12 (~1 × 10^6 CFU/mL) by using a spectrophotometer. Yeast cell suspensions were further diluted to achieve 1–5 × 10^3 CFU/mL in RPMI 1640 medium, and 100 μL of these yeast cells was added to 96-well microtiter plates containing RPMI 1640 medium and titrated compounds. Each test was performed in triplicate. The plates were incubated at 35 °C for 48 h.

[2] = tested on: C. albicans ATCC MYA-2310(S) (strain E); assay: MIC, broth microdilution (CLSI M27-A3), yeast strain E; format: cell-based; details: Candida albicans; MIC-0, strain E, 35 °C 48 h
Protocol: as §1

[3] = tested on: C. albicans ATCC 10231 (strain A); assay: MIC, broth microdilution (CLSI M27-A3), yeast strain A; format: cell-based, Candida albicans; details: Candida albicans, ATCC10231; MIC-0, strain A, 35 °C 48 h
Protocol: as §1

[4] = tested on: nine non-albicans Candida strains (H-J, CG1-3, CP1-3); assay: MIC across the panel of nine non-albicans Candida strains; format: cell-based, Candida glabrata, Candida krusei, Candida parapsilosis
Protocol: as §1

[5] = tested on: Candida glabrata clinical isolate CG2; assay: MIC, broth microdilution (CLSI M27-A3), CG2; format: cell-based; details: Nakaseomyces glabratus; MIC-0, CG2, 35 °C 48 h
Protocol: as §1

[6] = tested on: Candida krusei ATCC 6258 (strain I); assay: MIC, broth microdilution (CLSI M27-A3), yeast strain I; format: cell-based; details: Pichia kudriavzevii, ATCC6258; MIC-0, strain I, 35 °C 48 h
Protocol: as §1

[7] = tested on: Cryptococcus neoformans clinical isolate CN3; assay: MIC, broth microdilution (CLSI M27-A3), CN3; format: cell-based; details: MIC-0, CN3, 35 °C 48 h
Protocol: as §1

[8] = tested on: C. albicans ATCC 90819(R) (strain D); assay: MIC, broth microdilution (CLSI M27-A3), yeast strain D; format: cell-based; details: Candida albicans, ATCC90819; MIC-0, strain D, 35 °C 48 h
Protocol: as §1

[9] = tested on: C. albicans ATCC MYA-1237(R) (strain F); assay: MIC, broth microdilution (CLSI M27-A3), yeast strain F; format: cell-based; details: Candida albicans; MIC-0, strain F, 35 °C 48 h
Protocol: as §1

BEAS-2B cell line = assay: In vitro cytotoxicity assay (resazurin), BEAS-2B; format: cell-based, human; details: Homo sapiens, 24 h, resazurin
Protocol: Mammalian cytotoxicity assays were performed as previously described with minor modifications. The normal human bronchial epithelial cells BEAS-2B and the human lung carcinoma epithelial cells A549 were grown in DMEM containing 10% fetal bovine serum (FBS) and 1% antibiotics. The confluent cells were then trypsinized with 0.05% trypsin and 0.53 mM EDTA, and resuspended in fresh DMEM medium. The cells were transferred into 96-well microtiter plates at a density of 3000 cells/well and were grown for 24 h. The following day, the medium was replaced by a fresh culture medium containing serially diluted compounds 3, 4, 7a, 7b, and 9, as well as the parent drug TOB at final concentrations of 0.48–62.5 μg/mL or sterile ddH2O (negative control). The cells were incubated for an additional 24 h at 37 °C with 5% CO2 in a humidified incubator. To evaluate cell survival, each well was treated with 10 μL (25 μg/mL) of resazurin sodium salt (Sigma-Aldrich) for 4–6 h. Metabolically active cells can convert resazurin (blue) to the highly fluorescent dye resorufin (pink), which was detected at λ560 excitation and λ590 emission wavelengths by using a SpectraMax M5 plate reader. Triton X-100® (1% v/v) gave the complete loss of cell viability and was used as the positive control. The percentage survival rates were calculated by using the following formula: % cell survival = [(fluorescence of sample) − (fluorescence of blank)] × 100/[(fluorescence of negative control) − (fluorescence of blank)].

[10] = tested on: Candida parapsilosis clinical isolate CP2; assay: MIC, broth microdilution (CLSI M27-A3), CP2; format: cell-based; details: Lodderomyces parapsilosis; MIC-0, CP2, 35 °C 48 h
Protocol: as §1

[11] = tested on: Aspergillus terreus ATCC MYA-3633 (strain M); assay: MIC, filamentous fungi (CLSI M38-A2), strain M; format: cell-based; details: MIC-0, strain M, 35 °C 72 h
Protocol: The spores were harvested from sporulating cultures growing on potato dextrose agar (PDA) by filtration through sterile glass wool and enumerated by using a hemocytometer (Hausser Scientific, Horsham, PA, USA) to obtain the desired inoculum size. Two-fold serial dilutions of compounds 3, 4, 7a, 7b, 9, and 16, as well as CAS and TOB were made in sterile 96-well microtiter plates to obtain the final concentration range of 0.24–62.5 μg/mL for TOB and TOB derivatives as well as 0.03–31.3 μg/mL for CAS in the RPMI 1640 medium. The spore suspensions were added to the wells to afford a final concentration of 5 × 10^5 spores/mL. The plates were incubated at 35 °C for 72 h. […] Each test was performed in triplicate.

[12] = tested on: Candida glabrata clinical isolate CG1; assay: MIC, broth microdilution (CLSI M27-A3), CG1; format: cell-based; details: Nakaseomyces glabratus; MIC-0, CG1, 35 °C 48 h
Protocol: as §1

[13] = tested on: Candida parapsilosis clinical isolate CP1; assay: MIC, broth microdilution (CLSI M27-A3), CP1; format: cell-based; details: Lodderomyces parapsilosis; MIC-0, CP1, 35 °C 48 h
Protocol: as §1

[14] = tested on: C. albicans ATCC 64124 (strain B); assay: MIC, broth microdilution (CLSI M27-A3), yeast strain B; format: cell-based; details: Candida albicans, ATCC64124; MIC-0, strain B, 35 °C 48 h
Protocol: as §1

[15] = tested on: C. albicans ATCC MYA-1003(R) (strain G); assay: MIC, broth microdilution (CLSI M27-A3), yeast strain G; format: cell-based; details: Candida albicans; MIC-0, strain G, 35 °C 48 h
Protocol: as §1

[16] = tested on: Candida glabrata clinical isolate CG3; assay: MIC, broth microdilution (CLSI M27-A3), CG3; format: cell-based; details: Nakaseomyces glabratus; MIC-0, CG3, 35 °C 48 h
Protocol: as §1

[17] = tested on: Candida glabrata ATCC 2001 (strain H); assay: MIC, broth microdilution (CLSI M27-A3), yeast strain H; format: cell-based; details: Nakaseomyces glabratus, ATCC2001; MIC-0, strain H, 35 °C 48 h
Protocol: as §1

[18] = tested on: seven C. albicans strains (A-G); assay: MIC across the panel of seven C. albicans strains; format: cell-based; details: Candida albicans; across all seven C. albicans strains tested
Protocol: as §1

[19] = tested on: Cryptococcus neoformans clinical isolate CN2; assay: MIC, broth microdilution (CLSI M27-A3), CN2; format: cell-based; details: MIC-0, CN2, 35 °C 48 h
Protocol: as §1

[20] = tested on: C. albicans ATCC MYA-2876(S) (strain C); assay: MIC, broth microdilution (CLSI M27-A3), yeast strain C; format: cell-based; details: Candida albicans; MIC-0, strain C, 35 °C 48 h
Protocol: as §1

| Structure (SMILES) | MIC [1] | MIC [2] | MIC [3] | MIC [4] | MIC [5] | MIC [6] | MIC [7] | MIC [8] | MIC [9] | IC50 (BEAS-2B cell line) | MIC [10] | MIC [11] | MIC [12] | MIC [13] | MIC [14] | MIC [15] | MIC [16] | MIC [17] | MIC [18] | MIC [19] | further results |
| --- | --- | --- | --- | --- | --- | --- | --- | --- | --- | --- | --- | --- | --- | --- | --- | --- | --- | --- | --- | --- | --- |
| CCCCCCCCCCCCSC[C@H]1O[C@H](O[C@@H]2[C@@H](O)[C@H](O[C@H]3O[C@H](CN)[C@@H](O)C[C@H]3N)[C@@H](N)C[C@H]2N)[C@H](O)[C@@H](N)[C@@H]1O [Compound 3, O-3-Amino-3-deoxy-6-S-dodecyl-6-thio-α-D-glucopyranosyl-(1→6)-O-[2,6-diamino-2,3,6-trideoxy-α-D-ribo-hexopyranosyl-(1→4)]-2-deoxy-D-streptamine] | 0.975 mg/L (≈ 1.5 µM) | 15.6 mg/L (≈ 23.9 µM) | 15.6 mg/L (≈ 23.9 µM) | 3.9 to 15.6 mg/L (≈ 5.98 to 23.9 µM) | 7.8 mg/L (≈ 12 µM) | 3.9 mg/L (≈ 5.98 µM) | 0.48 mg/L (≈ 0.736 µM) | 15.6 mg/L (≈ 23.9 µM) | 7.8 mg/L (≈ 12 µM) | 31.3 to 62.5 mg/L (≈ 48 to 95.9 µM) | 7.8 mg/L (≈ 12 µM) | > 62.5 mg/L | 15.6 mg/L (≈ 23.9 µM) | 15.6 mg/L (≈ 23.9 µM) | 15.6 mg/L (≈ 23.9 µM) | 15.6 mg/L (≈ 23.9 µM) | 15.6 mg/L (≈ 23.9 µM) | 7.8 mg/L (≈ 12 µM) | 7.8 to 31.3 mg/L (≈ 12 to 48 µM) | 0.48 mg/L (≈ 0.736 µM) | MIC [20]: 15.6 mg/L (≈ 23.9 µM) |
| CCCCCCCCCCCCS(=O)(=O)C[C@H]1O[C@H](O[C@@H]2[C@@H](O)[C@H](O[C@H]3O[C@H](CN)[C@@H](O)C[C@H]3N)[C@@H](N)C[C@H]2N)[C@H](O)[C@@H](N)[C@@H]1O [Compound 4, O-3-Amino-3,6-dideoxy-6-(dodecylsulfonyl)-α-D-glucopyranosyl-(1→6)-O-[2,6-diamino-2,3,6-trideoxy-α-D-ribo-hexopyranosyl-(1→4)]-2-deoxy-D-streptamine] | 1.95 mg/L (≈ 2.85 µM) | 15.6 mg/L (≈ 22.8 µM) | 15.6 mg/L (≈ 22.8 µM) | 3.9 to 15.6 mg/L (≈ 5.7 to 22.8 µM) | 3.9 mg/L (≈ 5.7 µM) | 7.8 mg/L (≈ 11.4 µM) | 0.975 mg/L (≈ 1.43 µM) | 15.6 mg/L (≈ 22.8 µM) | 15.6 mg/L (≈ 22.8 µM) | > 62.5 mg/L | 3.9 mg/L (≈ 5.7 µM) | 62.5 mg/L (≈ 91.4 µM) | 7.8 mg/L (≈ 11.4 µM) | 3.9 mg/L (≈ 5.7 µM) | 31.3 mg/L (≈ 45.8 µM) | 15.6 mg/L (≈ 22.8 µM) | 3.9 mg/L (≈ 5.7 µM) | 15.6 mg/L (≈ 22.8 µM) | 7.8 to 31.3 mg/L (≈ 11.4 to 45.8 µM) | 0.48 mg/L (≈ 0.702 µM) | MIC [20]: 15.6 mg/L (≈ 22.8 µM) |
| CCCCCCCCCCc1cn(C[C@H]2O[C@H](O[C@@H]3[C@@H](O)[C@H](O[C@H]4O[C@H](CN)[C@@H](O)C[C@H]4N)[C@@H](N)C[C@H]3N)[C@H](O)[C@@H](N)[C@@H]2O)nn1 [Compound 7a, O-3-Amino-3,6-dideoxy-6-(4-decyl-1H-1,2,3-triazol-1-yl)-α-D-glucopyranosyl-(1→6)-O-[2,6-diamino-2,3,6-trideoxy-α-D-ribo-hexopyranosyl-(1→4)]-2-deoxy-D-streptamine] | 0.975 mg/L (≈ 1.48 µM) | 31.3 mg/L (≈ 47.5 µM) | 31.3 mg/L (≈ 47.5 µM) | 15.6 to 62.5 mg/L (≈ 23.7 to 94.9 µM) | 15.6 mg/L (≈ 23.7 µM) | 15.6 mg/L (≈ 23.7 µM) | 0.48 mg/L (≈ 0.729 µM) | 62.6 mg/L (≈ 95 µM) | 62.5 mg/L (≈ 94.9 µM) | > 62.5 mg/L | 15.6 mg/L (≈ 23.7 µM) | > 62.5 mg/L | 31.3 mg/L (≈ 47.5 µM) | 15.6 mg/L (≈ 23.7 µM) | 31.3 mg/L (≈ 47.5 µM) | 62.5 mg/L (≈ 94.9 µM) | 15.6 mg/L (≈ 23.7 µM) | 62.5 mg/L (≈ 94.9 µM) | 31.3 to 62.5 mg/L (≈ 47.5 to 94.9 µM) | 0.975 mg/L (≈ 1.48 µM) | MIC [20]: 62.5 mg/L (≈ 94.9 µM) |
| CCCCCCCCCCCCc1cn(C[C@H]2O[C@H](O[C@@H]3[C@@H](O)[C@H](O[C@H]4O[C@H](CN)[C@@H](O)C[C@H]4N)[C@@H](N)C[C@H]3N)[C@H](O)[C@@H](N)[C@@H]2O)nn1 [Compound 7b, O-3-Amino-3,6-dideoxy-6-(4-dodecyl-1H-1,2,3-triazol-1-yl)-α-D-glucopyranosyl-(1→6)-O-[2,6-diamino-2,3,6-trideoxy-α-D-ribo-hexopyranosyl-(1→4)]-2-deoxy-D-streptamine] | 0.48 mg/L (≈ 0.699 µM) | 7.8 mg/L (≈ 11.4 µM) | 3.9 mg/L (≈ 5.68 µM) | 1.95 to 7.8 mg/L (≈ 2.84 to 11.4 µM) | 3.9 mg/L (≈ 5.68 µM) | 3.9 mg/L (≈ 5.68 µM) | 0.975 mg/L (≈ 1.42 µM) | 15.6 mg/L (≈ 22.7 µM) | 7.8 mg/L (≈ 11.4 µM) | > 62.5 mg/L | 1.95 mg/L (≈ 2.84 µM) | 62.5 mg/L (≈ 91 µM) | 3.9 mg/L (≈ 5.68 µM) | 3.9 mg/L (≈ 5.68 µM) | 3.9 mg/L (≈ 5.68 µM) | 7.8 mg/L (≈ 11.4 µM) | 3.9 mg/L (≈ 5.68 µM) | 7.8 mg/L (≈ 11.4 µM) | 3.9 to 15.6 mg/L (≈ 5.68 to 22.7 µM) | 0.48 mg/L (≈ 0.699 µM) | MIC [20]: 15.6 mg/L (≈ 22.7 µM) |
